Patent US12486253B2, “Therapeutics for the degradation of mutant BRAF” (C4 THERAPEUTICS, INC., priority 2021, dated 2025)

Experiments:
A375 cells = assay: A375 cell growth (GI50); type: cell-based; conditions: Homo sapiens, A-375, at 96 hr
phospho-ERK (T202/Y204) = assay: HTRF phospho-ERK (T202/Y204) inhibition assay in A375 cells; type: cell-based; conditions: Homo sapiens, A-375, 24 hrs, mean of at least n = 3, read-out: pERK IC50
Method: A375 (harboring BRAF homozygous V600E mutation) were purchased from ATCC. DMEM Medium without phenol red and supplemented with L-glutamine was purchased from Corning (Corning, NY, USA). Advanced phospho-ERK (Thr202/Tyr204) HTRF assay kits were purchased from Cisbio (Bedford, MA, USA). Cell culture flasks and 384-well microplates were acquired from VWR (Radnor, PA, USA) or Corning (Corning, NY, USA).
Degradation of activated phospho-ERK (T202/Y204) protein was determined based on quantification of FRET signal using the Advanced phospho-ERK (T202/Y204) HTRF assay kit. Test compounds were added to the 384-well plate from a top concentration of 10 μM with 11 points, half log titration in duplicates. A375 cells were added into 384-well plates at a cell density of 8000 cells per well, respectively. The plates were kept at 37° C. with 5% CO2 for 24 hours. Cells treated in the absence of the test compound were the negative control. Positive control was set by wells containing all reagents but no cells. FRET signal was acquired on EnVision™ Multilabel Reader (PerkinElmer, Santa Clara, CA, USA).

CCN(C)S(=O)(=O)Nc1ccc(F)c(Oc2ccc3ncn([C@H]4COC5(CCN(C(=O)CC6(O)CCN(c7cc8c(cc7F)c(N7CCC(=O)NC7=O)nn8C)CC6)CC5)C4)c(=O)c3c2)c1C#N [Compound 157, (3R)-3-[6-[2-cyano-3-[[ethyl(methyl)sulfamoyl]amino]-6-fluorophenoxy]-4-oxoquinazolin-3-yl]-8-[2-[1-[3-(2,4-dioxo-1,3-diazinan-1-yl)-5-fluoro-1-methylindazol-6-yl]-4-hydroxypiperidin-4-yl]acetyl]-1-oxa-8-azaspiro[4.5]decane]
GI50 (A375 cells): 94 nM
IC50 (phospho-ERK (T202/Y204)): 3.2 nM
